In patent US11236081B2, “Crystalline salts of corydalmine” (priority 2018, dated 2022):
Where “and” joins values, the source holds several entries; their conditions need not be identical. Identical values can stand only once.

Legend:
[1] = Solubility studies in water at 2 hours; type: physicochemical
[2] = Dynamic vapor sorption (DVS), hygroscopicity at 25° C.; type: physicochemical
Protocol: Dynamic Vapor Sorption (DVS)
DVS was determined using DVS Intrinsic (SMS, UK). Transfer about 20 to 50 mg of the compound into a SMS dynamic vapor sorption model DVS and record the weight change with respect to a varying atmospheric humidity at 25° C.

[3] = Pharmacokinetic study: plasma concentration and plasma PK parameters after IV/PO dosing (LC-MS/MS, WinNonlin); type: in vivo, Male SD Rat; conditions: male SD rat, vehicle 20% HP-β-CD in water (POA, freebase) or water (salts)
Source text: Pharmacokinetic and Brain Penetration Study
Dose formulation processing during dosing: The dose formulations will be kept at room temperature.
Concentrations of Test Article in the plasma samples will be analyzed using a LC-MS/MS method.
WinNonlin (Phoenix™, version 6.1) or other similar software will be used for pharmacokinetic calculations. The following pharmacokinetic parameters will be calculated, whenever possible from the plasma concentration versus time data:
IV administration: T1/2, C0, AUClast, AUCinf, MRTinf, Cl, Vss, Number of Points for Regression.
PO administration: T1/2, Cmax, Tmax, MRTinf, AUCinf, AUClast, F %, Number of Points for Regression.
The pharmacokinetic data will be described using descriptive statistics such as mean, standard deviation.

[4] = PO 10 mg/kg (equal to freebase), plasma, individual rats, listed as TLZ-16 HC1, 10 mg/kg
[5] = PO 10 mg/kg (equal to freebase), plasma, mean n=3

COc1cc2c(cc1OC)[C@@H]1Cc3ccc(O)c(OC)c3CN1CC2.Cl [TLZ-16 HCl]
solubility in water [1]: approximately 19.1 mg/mL | hygroscopicity (DVS) ([2]; DVS, 25° C.): slightly hygroscopic | solid form after DVS test ([2]; after DVS test): does not change | water absorbed in DVS ([2]; at 80% RH, 25° C.): about 0.57% | F ([3]; PO 10 mg/kg (equal to freebase) vs IV 3 mg/kg freebase, individual rats, listed as TLZ-16 HC1): 35.9% and 20.7% and 24.7% | F, Mean ([3]; PO 10 mg/kg (equal to freebase) vs IV 3 mg/kg freebase, mean n=3): 27.1% | concentration in plasma ([3]; PO 10 mg/kg (equal to freebase), 0 h, individual rats): BLOQ (BLOQ = below limit of quantitation (0.2 ng/mL)) | concentration in plasma ([3]; PO 10 mg/kg (equal to freebase), 0.25 h, individual rats, 10 mg/kg): 236 ng/mL and 239 ng/mL and 385 ng/mL | concentration in plasma, Mean ([3]; PO 10 mg/kg (equal to freebase), 0.25 h, mean n=3): 287 ng/mL | concentration in plasma ([3]; PO 10 mg/kg (equal to freebase), 0.5 h, individual rats, 10 mg/kg): 225 ng/mL and 217 ng/mL and 356 ng/mL | concentration in plasma, Mean ([3]; PO 10 mg/kg (equal to freebase), 0.5 h, mean n=3): 266 ng/mL | concentration in plasma ([3]; PO 10 mg/kg (equal to freebase), 1 h, individual rats, 10 mg/kg): 130 ng/mL and 149 ng/mL and 173 ng/mL | concentration in plasma, Mean ([3]; PO 10 mg/kg (equal to freebase), 1 h, mean n=3): 151 ng/mL | concentration in plasma ([3]; PO 10 mg/kg (equal to freebase), 2 h, individual rats, 10 mg/kg): 135 ng/mL and 129 ng/mL and 115 ng/mL | concentration in plasma, Mean ([3]; PO 10 mg/kg (equal to freebase), 2 h, mean n=3): 126 ng/mL | concentration in plasma ([3]; PO 10 mg/kg (equal to freebase), 4 h, individual rats, 10 mg/kg): 109 ng/mL and 60.3 ng/mL and 79.2 ng/mL | concentration in plasma, Mean ([3]; PO 10 mg/kg (equal to freebase), 4 h, mean n=3): 82.8 ng/mL | concentration in plasma ([3]; PO 10 mg/kg (equal to freebase), 8 h, individual rats, 10 mg/kg): 44.3 ng/mL and 15.6 ng/mL and 14.1 ng/mL | concentration in plasma, Mean ([3]; PO 10 mg/kg (equal to freebase), 8 h, mean n=3): 24.7 ng/mL | concentration in plasma ([3]; PO 10 mg/kg (equal to freebase), 24 h, individual rats, 10 mg/kg): 0.356 ng/mL and BLOQ (BLOQ = below limit of quantitation (0.2 ng/mL)) (2×) | Tmax ([3]; PO 10 mg/kg (equal to freebase), plasma, individual rats): 0.25 h | AUCInf [3, 4]: 1217 ng·h/mL and 703 ng·h/mL and 837 ng·h/mL | AUClast [3, 4]: 1216 ng·h/mL and 658 ng·h/mL and 798 ng·h/mL | AUClast/D [3, 4]: 122 kg·ng·h/mL/mg and 65.8 kg·ng·h/mL/mg and 79.8 kg·ng·h/mL/mg | AUC—% Extrap_obs [3, 4]: 0.101% and 6.34% and 4.66% | Cmax [3, 4]: 236 ng/mL and 239 ng/mL and 385 ng/mL | MRTInf_obs [3, 4]: 4.53 h and 2.86 h and 2.58 h | T1/2 [3, 4]: 2.39 h and 1.98 h and 1.92 h | AUCInf, Mean [3, 5]: 919 ng·h/mL | AUClast, Mean [3, 5]: 891 ng·h/mL | AUClast/D, Mean [3, 5]: 89 kg·ng·h/mL/mg | AUC—% Extrap_obs, Mean [3, 5]: 3.70% | Cmax, Mean [3, 5]: 287 ng/mL | MRTInf_obs, Mean [3, 5]: 3.32 h | T1/2, Mean [3, 5]: 2.09 h | Tmax, Mean [3, 5]: 0.250 h
